Key:
[1] = molecular target: T1, Calcineurin (Cn) catalytic domain (Cn A), PxIxIT binding site (Homo sapiens, UniProt Q08209, L343A/M347D/Y341S); assay: Fluorescence polarization (FP) competition assay against FITC-labeled PVIVIT peptide; details: for IC50: read-out: IC50 (competition with FITC-labeled PVIVIT peptide for Cn binding), 100nM FITC-labeled PVIVIT peptide, 4uM Cn A, variable peptide concentrations, 96-well plate, triplicate, single site inhibition model fit, NB = No binding; for Ability to compete with PVIVIT for Cn binding: 100nM FITC-labeled PVIVIT peptide, 4uM Cn A, result in words
T1 construct: the gene encoding to residues 2–347 with substitutions Y341S, L343A, and M347D was expressed as a cleavable GST fusion protein; GST; made in house; host or cells: E. coli BL21
Experimental: Polarization levels were read and normalized values were fitted to a single site model.
Selected peptides were synthesized and their ability to specifically bind the Cn PxIxIT binding site was evaluated by FP competition assay (Methods).
The catalytic domain of Cn was expressed as described in [84, 85]. […] Growing in LB, after reaching to OD(600nm) = 0.8, protein expression was induced by the addition of 1 mM IPTG at 25°C. The cells were harvested after 16h and resuspended in PBS-based lysis buffer suitable for downstream purification onto GST column (Glutathione Sepharose 4 Fast Flow) of the soluble fraction after disrupted by sonication and remove of all non-soluble debris by centrifuge. Elution from the GST column was further purified by size exclusion chromatography with the superdex75 column.
Fluorescence measurements were performed on samples arrayed in a 96-well plate using Biotek HybridH1 reader equipped with a polarized optic system. All measurements were done in triplicate.

[2] = test system: GST-tagged Cn; assay: PEPperPRINT peptide microarray binding assay with GST-tagged Cn; details: GST-tagged Cn, mean over the duplicate spots (Location on chip)
Procedure, shortened: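 Qualitative binding: peptides printed on a PEPperPRINT microarray were incubated overnight at 4 °C with 1 mg/ml GST-tagged Cn, then detected with Alexa-Fluor 647 anti-GST antibody. Log fluorescence was baseline-corrected, averaged over duplicate spots, Z-normalized and averaged across five repeats.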

[3] = test system: GST-tagged Cn; assay: as above; details: max over the duplicate spots (Location on chip)
[4] = molecular target: T2, catalytic domain of Calcineurin (Cn A), residues 2-347 with Y341S, L343A, M347D (UniProt Q08209 2-347, Y341S | L343A | M347D); assay: fluorescence polarisation; competition: variable concentrations of non-labeled peptide added to 100 nM FITC-labeled PVIVIT peptide and 4 uM Cn A, 96-well plate, triplicate; fitted to a single site inhibition model; details: both partners purified
T2 construct: Calcineurin catalytic domain (calcineurin A), residues 2-347, with substitutions Y341S, L343A, M347D; Expressed as a cleavable GST fusion; source: E. coli BL21, purified (Glutathione Sepharose 4 Fast Flow, size exclusion on Superdex 75)
T2 sequence (Q08209 2-347 Y341S/L343A/M347D): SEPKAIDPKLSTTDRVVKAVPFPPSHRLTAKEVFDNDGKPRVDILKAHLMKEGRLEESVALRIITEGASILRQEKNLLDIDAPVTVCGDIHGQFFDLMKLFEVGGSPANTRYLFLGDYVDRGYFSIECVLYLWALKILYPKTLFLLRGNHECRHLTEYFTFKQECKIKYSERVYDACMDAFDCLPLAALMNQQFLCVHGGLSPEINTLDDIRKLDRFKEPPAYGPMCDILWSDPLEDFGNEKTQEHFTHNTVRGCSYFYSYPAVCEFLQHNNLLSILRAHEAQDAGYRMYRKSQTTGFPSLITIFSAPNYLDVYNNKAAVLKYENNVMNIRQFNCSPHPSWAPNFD

T1 sequence (Q08209 2-347 Y341S/L343A/M347D): as above

In the case of Ac-TFWTNPQYRIKLEEAD-NH2 [rbmCAPN11_3], the IC50 [1] is reported as > 257 µM.

Ac-TFHTNPQYRIKLEEPD-NH2 [rbmCAPN11_2] was tested, and the IC50 [1] was > 257 µM.

With Ac-ADGAGVGIVITVTEAE-NH2 [rbmAKAP79_2] the “Ability to compete with PVIVIT for Cn binding” value [1] was “successfully competed with PVIVIT binding”.

For Ac-TTAMNPQFFVQIPRTA-NH2 [CAPN11], the IC50 [1] was > 257 µM.

For Ac-AAGAGVGIVITVTEAE-NH2 [rbmAKAP79], the “Ability to compete with PVIVIT for Cn binding” value [1] was “successfully competed with PVIVIT binding”.

For Ac-RTYINPFMLFEDMGSR-NH2 [rbmSFB3], the IC50 [1] was > 257 µM.

For WPWCRHPKKRNWLNWH [Seqrandom_9939], the “Chip Fluorescence (mean)” value [2] was 1.3152 and the “Chip Fluorescence (max)” value [3] was 2.4643.

In the case of TFWSNPQYRITLEDPD [SeqRBMlowT_78], the “Chip Fluorescence (mean)” value [2] is reported as 0.4904 and the “Chip Fluorescence (max)” value [3] is reported as 2.0958.

GGPGTPSRQGQTAAPS [SeqRBM_5534] was tested, and the “Chip Fluorescence (mean)” value [2] was -0.2851 and the “Chip Fluorescence (max)” value [3] was 2.523.

With KKMSPPCITITPAPGA [SeqRBMlowT_7625] the “Chip Fluorescence (mean)” value [2] was -0.7518 and the “Chip Fluorescence (max)” value [3] was 2.125.

B1: rbmTRESK_2 (peptide)
peptide: Ac-ADEAIPEITITSAELP-NH2
notes: cRBM-designed (low temperature sampling); source: synthetic peptide (peptide2 Inc)
For B1, the IC50 [4] was 60 µM.

B2: TRESK peptide (peptide)
peptide: Ac-ADEAVPQIIISAEELP-NH2
notes: source: synthetic peptide (peptide2 Inc)
B2 gave an IC50 [4] of 54 µM.

B3: rbmAKAP79 (peptide)
peptide: Ac-AAGAGVGIVITVTEAE-NH2
notes: as for B1
B3 gave an IC50 [4] of 57 µM.

B4: rbmAKAP79_2 (peptide)
peptide: Ac-ADGAGVGIVITVTEAE-NH2
notes: as for B1
B4 showed an IC50 [4] of 69 µM.

B5: rbmRIPOR2_2 (peptide)
peptide: Ac-HVSSSPRITITPTQHR-NH2
notes: as for B1
B5 showed an IC50 [4] of 200 µM.

B6: rbmCAPN11 (peptide)
peptide: Ac-TYWTNPQFRVTLEDPD-NH2
notes: cRBM-designed (low temperature sampling); (Schistosoma mansoni CAPN11), 2 mutations; source: synthetic peptide (peptide2 Inc)
In the case of B6, the IC50 [4] is reported as 257 µM.

B7: rbmTRESK (peptide)
peptide: Ac-ADEAIPEIVISKPEEP-NH2
notes: as for B1
B7 showed an IC50 [4] of 14 µM.

B8: rbmRIPOR2 (peptide)
peptide: Ac-ASVSNPEITVTSAETE-NH2
notes: cRBM-designed; source: synthetic peptide (peptide2 Inc)
B8 gave an IC50 [4] of 79 µM.
